Paper PMC6364417, “Kinase inhibitor library screening identifies synergistic drug combinations effective in sensitive and resistant melanoma cells” (Journal of Experimental & Clinical Cancer Research : CR, 2019)

Experiments:
Test in all cases: Kinase inhibitor library screening, PrestoBlue cell viability, 1 or 10 μM, 72 h
IGR37 cells (parental) = details: IGR37 Parental, 72 h
[1] = system: A375-XP cells (Vemurafenib-resistant); details: A375 XP, 72 h
[2] = system: IGR37-GP cells (Dabrafenib-resistant); details: IGR37 GP, 72 h
A375 cells (parental) = details: A375 Parental, 72 h
501Mel cells (parental) = details: 501Mel Parental, 72 h
Outline: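 Two concentrations of every kinase inhibitor were tested on each melanoma line and its resistant counterparts, and cell survival was quantified by PrestoBlue against untreated wells.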

[3] = system: IGR37-XP cells (Vemurafenib-resistant); details: IGR37 XP, 72 h
[4] = system: 501Mel-XP cells (Vemurafenib-resistant); details: 501Mel XP, 72 h
[5] = system: 501Mel-GP cells (Dabrafenib-resistant); details: 501Mel GP, 72 h
[6] = system: A375-GP cells (Dabrafenib-resistant); details: A375 GP, 72 h

For `CN(C)C1CCN(C(=O)c2ccc(NC(=O)Nc3ccc(-c4nc(N5CCOCC5)nc(N5CCOCC5)n4)cc3)cc2)CC1` [PF-05212384 (PKI-587)], the “Cell viability in kinase inhibitor library screening, IGR37 Parental, 1μΜ” value (IGR37 cells (parental); 1μΜ, in %) was 35.0, the “Cell viability in kinase inhibitor library screening, IGR37 Parental, 10μΜ” value (IGR37 cells (parental); 10μΜ, in %) was 14.2 and the “Cell viability in kinase inhibitor library screening, A375 XP, 1μΜ” value ([1]; 1μΜ) was 33.4. The “Cell viability in kinase inhibitor library screening, A375 XP, 10μΜ” value ([1]; 10μΜ) was 11.6, the Cell viability in kinase inhibitor library screening, IGR37 GP, 10μΜ ([2]; 10μΜ) was 6.8% and the “Cell viability in kinase inhibitor library screening, IGR37 GP, 1μΜ” value ([2]; 1μΜ, in %) was 39.4. For the same compound, the “Cell viability in kinase inhibitor library screening, A375 Parental, 10μΜ” value (A375 cells (parental); 10μΜ) was 13.9, the “Cell viability in kinase inhibitor library screening, A375 Parental, 1μΜ” value (A375 cells (parental); 1μΜ) was 35.9 and the “Cell viability in kinase inhibitor library screening, 501Mel Parental, 1μΜ” value (501Mel cells (parental); 1μΜ, in %) was 22.6. For the same compound, the “Cell viability in kinase inhibitor library screening, 501Mel Parental, 10μΜ” value (501Mel cells (parental); 10μΜ, in %) was 1.3, the Cell viability in kinase inhibitor library screening, IGR37 XP, 10μΜ ([3]; 10μΜ) was 3% and the “Cell viability in kinase inhibitor library screening, IGR37 XP, 1μΜ” value ([3]; 1μΜ, in %) was 33.0. The “Cell viability in kinase inhibitor library screening, 501Mel XP, 1μΜ” value ([4]; 1μΜ, in %) was 53.1, the “Cell viability in kinase inhibitor library screening, 501Mel XP, 10μΜ” value ([4]; 10μΜ, in %) was 0.9 and the “Cell viability in kinase inhibitor library screening, 501Mel GP, 1μΜ” value ([5]; 1μΜ, in %) was 29.3. The “Cell viability in kinase inhibitor library screening, 501Mel GP, 10μΜ” value ([5]; 10μΜ, in %) was 2.2, the “Cell viability in kinase inhibitor library screening, A375 GP, 1μΜ” value ([6]; 1μΜ) was 34.6 and the “Cell viability in kinase inhibitor library screening, A375 GP, 10μΜ” value ([6]; 10μΜ) was 13.9.

In the case of `CCCCOc1c(C(=O)c2c(F)cc(C)cc2F)c[nH]c2nncc1-2` [BMS-265246], the “cell viability (kinase inhibitor library screening)” value (IGR37 cells (parental); 1μΜ) is reported as 91.7%, the “cell viability (kinase inhibitor library screening)” value (IGR37 cells (parental); 10μΜ) is reported as 91.8% and the “cell viability (kinase inhibitor library screening)” value ([1]; 1μΜ) is reported as 94.5%. For the same compound, the “cell viability (kinase inhibitor library screening)” value ([1]; 10μΜ) was 71.7%, the “cell viability (kinase inhibitor library screening)” value ([2]; 1μΜ) was 90.7% and the “cell viability (kinase inhibitor library screening)” value ([2]; 10μΜ) was 83.4%. For the same compound, the “cell viability (kinase inhibitor library screening)” value (A375 cells (parental); 10μΜ) was 49.0%, the “cell viability (kinase inhibitor library screening)” value (A375 cells (parental); 1μΜ) was 91.4% and the “cell viability (kinase inhibitor library screening)” value (501Mel cells (parental); 1μΜ) was 92.4%. The “cell viability (kinase inhibitor library screening)” value (501Mel cells (parental); 10μΜ) was 77.7%, the “cell viability (kinase inhibitor library screening)” value ([3]; 1μΜ) was 85.9% and the “cell viability (kinase inhibitor library screening)” value ([3]; 10μΜ) was 48.1%. For the same compound, the “cell viability (kinase inhibitor library screening)” value ([4]; 1μΜ) was 87.1%, the “cell viability (kinase inhibitor library screening)” value ([4]; 10μΜ) was 32.9% and the “cell viability (kinase inhibitor library screening)” value ([5]; 1μΜ) was 94.2%. The “cell viability (kinase inhibitor library screening)” value ([5]; 10μΜ) was 52.8%, the “cell viability (kinase inhibitor library screening)” value ([6]; 1μΜ) was 93.5% and the “cell viability (kinase inhibitor library screening)” value ([6]; 10μΜ) was 40.3%.

In the case of `CNC(=O)c1ccccc1Nc1nc(Nc2ccc(N3CCOCC3)cc2OC)ncc1Cl` [NVP-TAE226], the “cell viability, IGR37 Parental, 1μΜ” value (IGR37 cells (parental); 1μΜ, in %) is reported as 82.8, the “cell viability, IGR37 Parental, 10μΜ” value (IGR37 cells (parental); 10μΜ, in %) is reported as 36.2 and the “cell viability, A375 XP, 1μΜ” value ([1]; 1μΜ, in %) is reported as 52.4. For the same compound, the “cell viability, A375 XP, 10μΜ” value ([1]; 10μΜ, in %) was 21.6, the cell viability, IGR37 GP, 10μΜ ([2]; 10μΜ) was 3.7% and the “cell viability, IGR37 GP, 1μΜ” value ([2]; 1μΜ, in %) was 59.0. For the same compound, the “cell viability, A375 Parental, 1μΜ” value (A375 cells (parental); 1μΜ, in %) was 51.1, the “cell viability, A375 Parental, 10μΜ” value (A375 cells (parental); 10μΜ, in %) was 12.7 and the “cell viability, 501Mel Parental, 1μΜ” value (501Mel cells (parental); 1μΜ, in %) was 69.2. The “cell viability, 501Mel Parental, 10μΜ” value (501Mel cells (parental); 10μΜ, in %) was 38.3, the cell viability, IGR37 XP, 10μΜ ([3]; 10μΜ) was 1.5% and the “cell viability, IGR37 XP, 1μΜ” value ([3]; 1μΜ, in %) was 34.8. The “cell viability, 501Mel XP, 1μΜ” value ([4]; 1μΜ, in %) was 67.5, the “cell viability, 501Mel XP, 10μΜ” value ([4]; 10μΜ, in %) was 20.7 and the “cell viability, 501Mel GP, 1μΜ” value ([5]; 1μΜ, in %) was 72.0. For the same compound, the “cell viability, 501Mel GP, 10μΜ” value ([5]; 10μΜ, in %) was 34.3, the “cell viability, A375 GP, 1μΜ” value ([6]; 1μΜ, in %) was 41.6 and the “cell viability, A375 GP, 10μΜ” value ([6]; 10μΜ, in %) was 16.3.

With `COc1ccc(Cl)c(Nc2nc3ccccc3nc2NS(=O)(=O)c2cccc(NC(=O)C(C)(C)N)c2)c1` [XL147] the “Cell viability in kinase inhibitor library screening, IGR37 Parental, 10μΜ” value (IGR37 cells (parental); 10μΜ, in %) was 90.5, the “Cell viability in kinase inhibitor library screening, A375 XP, 1μΜ” value ([1]; 1μΜ) was 100.4 and the “Cell viability in kinase inhibitor library screening, A375 XP, 10μΜ” value ([1]; 10μΜ) was 100.4. The Cell viability in kinase inhibitor library screening, IGR37 GP, 10μΜ ([2]; 10μΜ) was 88.3%, the “Cell viability in kinase inhibitor library screening, IGR37 GP, 1μΜ” value ([2]; 1μΜ, in %) was 103.8 and the “Cell viability in kinase inhibitor library screening, A375 Parental, 10μΜ” value (A375 cells (parental); 10μΜ) was 88.5. For the same compound, the “Cell viability in kinase inhibitor library screening, A375 Parental, 1μΜ” value (A375 cells (parental); 1μΜ) was 99.8, the “Cell viability in kinase inhibitor library screening, 501Mel Parental, 1μΜ” value (501Mel cells (parental); 1μΜ, in %) was 95.0 and the “Cell viability in kinase inhibitor library screening, 501Mel Parental, 10μΜ” value (501Mel cells (parental); 10μΜ, in %) was 91.9. The Cell viability in kinase inhibitor library screening, IGR37 XP, 10μΜ ([3]; 10μΜ) was 62.4%, the “Cell viability in kinase inhibitor library screening, IGR37 XP, 1μΜ” value ([3]; 1μΜ, in %) was 98.4 and the “Cell viability in kinase inhibitor library screening, 501Mel XP, 1μΜ” value ([4]; 1μΜ, in %) was 93.7. The “Cell viability in kinase inhibitor library screening, 501Mel XP, 10μΜ” value ([4]; 10μΜ, in %) was 83.3, the “Cell viability in kinase inhibitor library screening, 501Mel GP, 10μΜ” value ([5]; 10μΜ, in %) was 87.3 and the “Cell viability in kinase inhibitor library screening, A375 GP, 1μΜ” value ([6]; 1μΜ) was 91.5. For the same compound, the “Cell viability in kinase inhibitor library screening, A375 GP, 10μΜ” value ([6]; 10μΜ) was 84.7.
